The nature of data set [1]: Stability constants of Sc(III) complexes, out‐of‐cell (batch) samples, 45Sc NMR. It is filed as physicochemical. The following applies: I = 1.00 M NaCl; for pSc: pSc = ‐log[Sc(III)]free, cSc(III) = 1x10^−8 M, clig = 1x10^−7 M; for log K ScL: stability constant of the Sc(III) complex, T = 25 °C. The protocol: The stability constant of the complex of PC2AM^nBu ligand formed with Sc(III) ion was studied using “out‐of‐cell” (batch) samples using ^45Sc NMR spectroscopy in strongly acidic media. Typical ^45Sc NMR spectra are shown in Figure 5 along with the corresponding ^1H NMR spectra of the aromatic region of the ligand.
Using the ^45Sc NMR signal intensities of free Sc^3+ measured in the equilibrated samples, the stability constant, K ScL, was calculated by fitting the areas with the PSEQUAD program ^[ [47] ^] (Figure 6). The best fitting was observed by considering the simplest model including only [Sc(PC2AM^nBu)]^+ species; that is, the formation of protonated [Sc(HPC2AM^nBu)]^2+ cannot be confirmed.
The stability constant of the [Sc(PCTA)] complex was determined in a similar way (Figure S13). The results were summarized in Table 2, including the data of [Sc(DO3AM‐NI)], determined in our previous study.^[ [33] ^]
Among the complexes shown in Table 2, the [Sc(DO3AM‐NI)] complex has the highest stability, but its stability constant is lower than the corresponding values of [Sc(DOTA)]^− (log K ScL = 30.79) and [Sc(DTPA)]^2− (log K ScL = 27.43). ^[ [49] ^] As evidenced for DO3AM‐mono(amide) the replacement of acetate side chains with amide groups results in a decrease in stability constant (and conditional stability); therefore, we can see an order of magnitude difference between the stabilities of [Sc(PCTA)] and [Sc(PC2AM^nBu)]^+. Although these K ScL constants and pSc values are somewhat lower than those of the complexes formed with traditional DOTA and DTPA ligands, these chelators remain remarkably good Sc(III)‐binding chelators. […] Therefore, following the proposal of M. Meyer and colleagues,^[ [48] ^] […] For the AL/M values, 1 corresponds to 90%, 2 corresponds to 99%, 3 corresponds to 99.9% etc. for complex formation. […] The AL/M data of the [Sc(PC2AM^nBu)]^+ complex only exceeds that of the [Sc(DO3AM‐NI)] complex in the pH < 3.0 range, which can be advantageous for labeling at low pH. Furthermore, based on the data in Table 2, it can be concluded that for these systems there is no discrepancy between the trends observed in the pSc and AL/M values.
The stability constant of [Sc(PC2AM^nBu)]^+ and [Sc(PCTA)] complexes was studied using “out‐of‐cell” (batch) samples using ^45Sc and ^1H NMR spectroscopy. The NMR spectra were obtained using a Bruker Avance II DRX spectrometer (9.4 T), equipped with Bruker Variable Temperature Unit, Bruker Cooling Unit, and a 5 mm BB inverse z gradient probe. For the investigation of [Sc(PC2AMnBu)]⁺, twelve samples (cSc(III) = 3.00 mM, cligand = 3.06 mM, in the pH range of –log[H^+] = 0.1–1.3; I = 1.0 M NaCl/HCl) were prepared in NMR tubes and kept at 25 °C for one week to reach equilibrium. During this period, ^1H and ^45Sc NMR measurements were performed daily to monitor changes in signal intensities. No significant changes were detected after one week, even in the most acidic sample. The intensities of the free Sc(III) signals were normalized using a standard 50 mM ScCl3 solution containing 1 M HCl (20% D2O). For the determination of the stability of the [Sc(PCTA)] complex, eleven “batch” samples (cSc(III) = 4.00 mM, cligand = 4.08 mM), in the pH range of –log[H^+] = 0.1–1.25, were prepared. The evaluation of the measured data was performed using the PSEQUAD program.^[ [47] ^] Samples were prepared in H2O, with 10% D2O added for deuterium lock. The actual resonance frequencies for ^1H, ^13C, ^19F, and ^45Sc are indicated in the text and figure captions. The chemical shifts of ^1H and ^13C were calibrated using an external TMS standard, while ^19F was referenced to CCl3F. The ^45Sc NMR shift was calibrated to 0 ppm using a 5 mM solution of ScCl3 in 0.1 M HCl.

The nature of data set [2]: Acid‐assisted dissociation (decomplexation) of Sc(III) complexes, UV spectroscopy. It is filed as physicochemical. The source says: The inertness of metal complexes is a basic requirement in all relevant modalities of medical imaging. Complexes of macrocyclic ligands are often more inert compared to open‐chain analogs. In order to assess the behavior of our complexes, the decomplexation of [Sc(PC2AM^nBu)]^+ and [Sc(PCTA)] was studied in a strongly acidic medium (cH + = 1.6 ‐ 2.6 M HClO4) by using UV spectroscopy. […] The primary Abs. versus time curves have been fitted by monoexponential function returning kobs (s^−1) values (Figures S22 and S23).
The plots of the rate constants as a function of acid concentration yielded linear relationships for both complexes (k obs = k 0 + k 1[H^+]). The slopes of these lines correspond to the rate coefficients characteristic for acid‐assisted dissociation (k 1), whereas the intercepts characterize the acid‐independent part, often referred to as a rate of spontaneous dissociation. […] The rate coefficients obtained during the fitting are summarized in Table 3, along with the half‐lives calculated from the rate coefficients by using 1 M acid concentration (t ½ = ln 2 / k obs).
Kinetic studies of the dissociation of the [Sc(PC2AMnBu)]^+ and [Sc(PCTA)] complexes were carried out by examining the dependence of the dissociation rates on acid concentration. Spectrophotometric measurements were conducted on a JASCO V‐760 spectrophotometer at λ = 280 nm. The concentration of the complex in the sample was 0.30 mM, and HClO4 was applied in concentrations ranging from 1.6 to 2.6 M. The evaluation of the measured data was performed with Scientist software ^[ [62] ^] to determine the k 0 (spontaneous) and k 1 (acid‐assisted) reaction rates.

Where [3] appears, read: dissociation of the Sc(III) complex, 1.6‐2.6 M HClO4, 25 °C, I = 2.6 M.

As to `O=C(O)CN1CCN(CC(=O)O)Cc2cccc(n2)CN(CC(=O)O)CC1` [PCTA, reference compound], the “AL/M (relative affinity)” value in data set [1] ([Sc(III)]total = 10 nM, [L]tot = 100 nM, pH = 7.4) stood at 7.14. The pSc in data set [1] (pH = 7.4) came to 21.28. Also, the “log K ScL” value in data set [1] is 22.41(9). Further, in data set [2] (setting [3]), the “k 0 (spontaneous dissociation)” value is on record as “(4.21 ± 0.81) x 10^−6 s^−1” and the “k 1 (acid‐assisted dissociation)” value is reported as “(2.11 ± 0.38) x 10^−6 M^−1s^−1”.
Take `CCCCNC(=O)CN1CCN(CC(=O)[O-])Cc2cccc(n2)CN(CC(=O)[O-])CC1.[Sc+3]` [[Sc(PC2AM^nBu)]^+]: in data set [1] (pH = 7.4), the pSc came out at 19.32. Moreover, the “log K ScL” value in data set [1] is listed as 19.53(4). The “t 1/2 of dissociation (1 M H^+)” value in data set [2] (calculated from rate coefficients at 1 M acid concentration, 25 °C) is 22 days.

The values are drawn from paper PMC12731536, “Sc(III) Complexes of Pyclen Derivative Ligands as Probes for Hypoxia: Synthesis, Chemical Characterization, ^44Sc‐Radiolabeling, and Preclinical Assessment” (Chemistry (Weinheim an Der Bergstrasse, Germany), 2025).
